Assay [1] has as its system HEK293sieSTAT3(Y640F). As to the kind of experiment: drug sensitivity score (DSS), cytotoxicity CellTox Green (DSS (dimensionless)); higher = more cytotoxic; extreme values may be limits of the assay. Particulars: 72 h; STAT3 variant: Y640F (constitutively active). The procedure, abridged:
(§1)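 For 72 hours at 37°C and 5% CO2, HEK293 cells overexpressing wild-type or mutant STAT3 and carrying a STAT3-dependent luciferase reporter were cultured on compounds at 5 concentrations in 10-fold dilutions. CellTox Green and then CellTiter-Glo signals were read, normalised to negative and positive control wells, and converted in Breeze into a drug sensitivity score based on dose-response curve area. Values are from one representative of two experiments.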

Assay [2] relates to HEK293sieSTAT3(wt). The description is as above. Particulars: 72 h; STAT3 variant: wild type. In short, it runs like this: as §1
Assay [3] has as its system HEK293sieSTAT3(Y640F). As to the kind of experiment: drug sensitivity score (DSS), viability CellTiter-Glo (DSS (dimensionless)); higher = more growth inhibition; extreme values may be limits of the assay. To be noted: 72 h; STAT3 variant: Y640F (constitutively active). In short, it runs like this: as §1
The test system of assay [4] is HEK293sieSTAT3(wt). Described as above. Particulars: 72 h; STAT3 variant: wild type. In short, it runs like this:
as §1

On to `CCN1CCN(Cc2ccc(-c3cc4c(N[C@H](C)c5ccccc5)ncnc4[nH]3)cc2)CC1` [NVP-AEE788] (top concentration tested 2500 nM), for which the drug sensitivity score in assay [1] turned out to be 0; in assay [2], 0.32; in assay [3] it was 1.43; in assay [4], 1.25.

Take `CCN1CCN(c2ccc(Nc3cc(N(C)C(=O)Nc4c(Cl)c(OC)cc(OC)c4Cl)ncn3)cc2)CC1` [NVP-BGJ398] (top concentration tested 1000 nM): the drug sensitivity score stood at 0 in assay [1], 2.48 in assay [2], 0.2 in assay [3] and 0 in assay [4].

As for `COc1ccc(-c2ccc3ncc4c(c3c2)n(-c2ccc(N3CCNCC3)c(C(F)(F)F)c2)c(=O)n4C)cn1` [NVP-BGT226] (top concentration tested 1000 nM), the drug sensitivity score was 4.28 in assay [1], 9.37 in assay [2], 24.6 in assay [3] and 28 in assay [4].

Consider `CNC(=O)c1ccc(-c2cnc3ncc(Cc4ccc5ncccc5c4)n3n2)cc1F` [NVP-INC280] (top concentration tested 1000 nM), for which the drug sensitivity score in assay [1] stood at 0; in assay [2], 0; in assay [3], 3.02; in assay [4], 2.77.

For `CC1(C)CCC(c2ccc(Cl)cc2)=C(CN2CCN(c3ccc(C(=O)NS(=O)(=O)c4ccc(N[C@H](CCN5CCOCC5)CSc5ccccc5)c(S(=O)(=O)C(F)(F)F)c4)cc3)CC2)C1` [Navitoclax] (top concentration tested 10000 nM), the drug sensitivity score in assay [1], in assay [2], in assay [3] and in assay [4] was 0 in each case.

For `COc1nc(N)nc2c1ncn2[C@@H]1O[C@H](CO)[C@@H](O)[C@@H]1O` [Nelarabine] (top concentration tested 10000 nM), the drug sensitivity score in assay [1] was found to be 0; in assay [2], 0; in assay [3] it was 0.7; in assay [4], 1.07.

For the molecule `CCOc1cc2ncc(C#N)c(Nc3ccc(OCc4ccccn4)c(Cl)c3)c2cc1NC(=O)/C=C/CN(C)C` [Neratinib] (top concentration tested 1000 nM), the drug sensitivity score in assay [1] is 0; in assay [2] it was 0; in assay [3] it was 3.35; in assay [4] it was 1.99.

Take `Cc1cn(-c2cc(NC(=O)c3ccc(C)c(Nc4nccc(-c5cccnc5)n4)c3)cc(C(F)(F)F)c2)cn1` [Nilotinib] (top concentration tested 10000 nM): the drug sensitivity score turned out to be 0.16 in assay [1], 0 in assay [2], 3.13 in assay [3] and 3.74 in assay [4].

In the case of `CC1(C)NC(=O)N(c2ccc([N+](=O)[O-])c(C(F)(F)F)c2)C1=O` [Nilutamide] (top concentration tested 10000 nM), the drug sensitivity score in assay [1] was 0; in assay [2], 0.74; in assay [3], 2.68; in assay [4], 0.69.

On to `COC(=O)c1ccc2c(c1)NC(=O)/C2=C(\Nc1ccc(N(C)C(=O)CN2CCN(C)CC2)cc1)c1ccccc1` [Nintedanib] (top concentration tested 10000 nM), for which the drug sensitivity score was determined as 3.45 in assay [1], 6.55 in assay [2], 8 in assay [3] and 9.79 in assay [4].

With `NC(=O)c1cccc2cn(-c3ccc([C@@H]4CCCNC4)cc3)nc12` [Niraparib] (top concentration tested 10000 nM), the drug sensitivity score turned out to be 1.69 in assay [1], 9.84 in assay [2], 8.57 in assay [3] and 13.3 in assay [4].

As for `COc1ccc(C2=N[C@@H](c3ccc(Cl)cc3)[C@@H](c3ccc(Cl)cc3)N2C(=O)N2CCNC(=O)C2)c(OC(C)C)c1` [Nutlin-3] (top concentration tested 10000 nM), the drug sensitivity score in assay [1] worked out at 0.07; in assay [2], 0.87; in assay [3] it was 1.89; in assay [4] it was 1.15.

Regarding `COc1cccc2cc(-c3nc([C@H]4CC[C@H](C(=O)O)CC4)n4ncnc(N)c34)[nH]c12` [OSI-027] (top concentration tested 10000 nM), the drug sensitivity score in assay [1] worked out at 0; in assay [2], 0; in assay [3] it was 7.79; in assay [4], 6.8.

Regarding `O=C(Nc1ccc(OC(F)(F)F)cc1)c1sccc1NCc1ccnc2ccccc12` [OSI-930] (top concentration tested 2500 nM), the drug sensitivity score was 0 in assay [1], 0 in assay [2], 0.46 in assay [3] and 1.31 in assay [4].

For `CC(=O)c1cnc2ccc(-c3cc(Cl)c(O)c(Cl)c3)nc2c1N[C@H]1CC[C@H](CN(C)C)CC1` [OTSSP167] (top concentration tested 1000 nM), the drug sensitivity score is 5.22 in assay [1], 5.73 in assay [2], 21.1 in assay [3] and 21.2 in assay [4].

`Cc1sc2c(c1C)C(c1ccc(Cl)cc1)=N[C@@H](CC(=O)Nc1ccc(O)cc1)c1nnc(C)n1-2` [OTX015] (top concentration tested 10000 nM): the drug sensitivity score in assay [1] is 3.12; in assay [2], 10.9; in assay [3], 12.2; in assay [4], 10.5.

For `COC1=CC(c2cc3ccccc3[nH]2)=N/C1=C\c1[nH]c(C)cc1C` [Obatoclax] (top concentration tested 10000 nM), the drug sensitivity score in assay [1] was 0; in assay [2], 0; in assay [3], 1.57; in assay [4], 2.27.

On to `O=C(c1cc(Cc2n[nH]c(=O)c3ccccc23)ccc1F)N1CCN(C(=O)C2CC2)CC1` [Olaparib] (top concentration tested 10000 nM), for which the drug sensitivity score in assay [1] is 0; in assay [2], 0.67; in assay [3] it was 4.22; in assay [4], 3.58.
